Here are results for 32 compounds from ChEMBL document CHEMBL3632500, “Developing structure-activity relationships from an HTS hit for inhibition of the Cks1-Skp2 protein-protein interaction” (Bioorg Med Chem Lett, 2015).

Assay [1] concerns the target T1, Cyclin-dependent kinases regulatory subunit 1/S-phase kinase-associated protein 2 (Homo sapiens, UniProt P61024+Q13309). Description: Inhibition of Cks1-Skp2 (unknown origin) interaction assessed as increase in p27-GFP level by western blot analysis. It is filed as protein assay. In general terms: A western blot detects proteins with antibodies after separation by electrophoresis.
Target sequence in this assay (P61024 2-79 limits assumed): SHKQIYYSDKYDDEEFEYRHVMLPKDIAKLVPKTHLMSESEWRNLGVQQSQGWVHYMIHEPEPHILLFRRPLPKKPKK
Target sequence in this assay (Q13309 whole entry partner): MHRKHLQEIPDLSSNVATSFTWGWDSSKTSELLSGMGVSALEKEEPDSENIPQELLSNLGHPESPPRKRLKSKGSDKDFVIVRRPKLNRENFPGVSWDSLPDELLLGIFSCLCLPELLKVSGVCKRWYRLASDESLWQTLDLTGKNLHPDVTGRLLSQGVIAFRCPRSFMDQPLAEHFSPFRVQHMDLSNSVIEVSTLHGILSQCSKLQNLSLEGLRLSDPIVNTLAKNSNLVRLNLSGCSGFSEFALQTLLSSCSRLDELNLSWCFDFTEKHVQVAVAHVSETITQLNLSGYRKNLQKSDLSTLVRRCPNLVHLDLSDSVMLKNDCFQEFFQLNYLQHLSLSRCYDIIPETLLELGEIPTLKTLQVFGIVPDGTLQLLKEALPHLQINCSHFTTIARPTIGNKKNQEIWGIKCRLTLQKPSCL

The target of assay [2] is T1, Cyclin-dependent kinases regulatory subunit 1/S-phase kinase-associated protein 2. Description: Inhibition of Cks1-Skp2 (unknown origin) interaction assessed as increase in p27-GFP level by ELISA. In kind it is protein assay.
Target sequence in this assay (P61024 2-79 limits assumed): as the sequence (P61024 2-79 limits assumed) above
Target sequence in this assay (Q13309 whole entry partner): as the sequence (Q13309 whole entry partner) above
The subject of assay [3] is A549. Description: Antiproliferative activity against human A549 cells after 6 days. In kind it is functional. The note with it: A549, 144 h.
A short description of assay [4]: Antiproliferative activity against human HT1080 cells after 6 days. It is filed as functional. The following applies: HT-1080, 144 h.
A further assay deals with NCI-H1299. Description: Antiproliferative activity against human H1299 cells after 2 days. It is filed as functional, cell-based.
In assay [5] the test system is A549. The assay can be described thus: Antiproliferative activity against human A549 cells after 2 days. In kind it is functional, cell-based.
For assay [6], the target named is T1, Cyclin-dependent kinases regulatory subunit 1/S-phase kinase-associated protein 2. The assay can be described thus: Inhibition of Cks1-Skp2 (unknown origin) interaction after 30 mins by ELISA. In kind it is protein assay. In general terms: An ELISA detects its analyte on a solid surface through an enzyme-linked reagent.
The mark [7] stands for this setting: Homo sapiens, NCI-H1299, 48 h, read-out: IC50.
The mark [8] stands for this setting: Homo sapiens, A549, 48 h, read-out: IC50.

Calls of active or inactive are those of the source. The calls are words filed in the database; no cut-off is given here.

In the case of `Cc1ccc(S(=O)(=O)Nc2ccc(Br)c3cccnc23)cc1`, the result in assay [1] and in assay [2] was Active.

For orientation: GI50 means the concentration giving 50% growth inhibition. By IC50 is commonly meant the concentration that gives 50% inhibition. With `Cc1ccc(S(=O)(=O)Nc2cc(Oc3cc(F)cc(F)c3)cc3cccnc23)cc1`, the result in assay [1] and in assay [2] was Active. The concentration for 50% growth inhibition (GI50) in the assay on A549 [3] came to 4.11 µM; in assay [4], 0.08 µM. Moreover, the IC50 with NCI-H1299 (setting [7]) is 2.46 µM; with A549 [5] (setting [8]), 2.94 µM.

With `Cc1ccc(S(=O)(=O)Nc2ccc(-c3cc4ccccc4s3)c3cccnc23)cc1`, the outcome in assay [1] and in assay [2] was Active. Also, the GI50 in the assay on A549 [3] is 0.39 µM; in assay [4] it was 0.15 µM. Further, the IC50 entry with NCI-H1299 (nci-h1299) and with A549 [5] (a549) was “Not Active” throughout.

Take `CS(=O)(=O)Nc1ccc(-c2ccncc2)c2cccnc12`: the IC50 entry in assay [6] is on record as “Not Active”. Besides, the outcome in assay [1] and in assay [2] was inactive.

With `CS(=O)(=O)Nc1ccc(-c2ccccc2)c2cccnc12`, the outcome in assay [1] and in assay [2] was Active.

For the compound `Cc1ccc(S(=O)(=O)Nc2ccc(-c3ccccc3)c3cccnc23)cc1`, the outcome in assay [1] and in assay [2] was Active. In addition, the 50% growth inhibitory concentration (GI50) in the assay with A549 [3] is 2.36 µM; in assay [4], 1.64 µM. In addition, the IC50 in the assay on NCI-H1299 (setting [7]) came out at 8.56 µM; in the assay with A549 [5] (setting [8]), 7.22 µM.

In the case of `Cc1ccc(S(=O)(=O)Nc2ccc(-c3ccsc3)c3cccnc23)cc1`, the result in assay [1] and in assay [2] was Active. Besides, the concentration for 50% growth inhibition (GI50) in the assay on A549 [3] came out at 2.36 µM; in assay [4] it was 0.64 µM. In addition, the IC50 in the assay with NCI-H1299 (setting [7]) was 4.09 µM; with A549 [5] (setting [8]), 4.63 µM.

For the compound `O=S(=O)(Nc1ccc(-c2ccccc2)c2cccnc12)c1cccc(C(F)(F)F)c1`, the result in assay [1] and in assay [2] was Active.

For `CS(=O)(=O)Nc1ccc(-c2cccnc2)c2cccnc12`, the outcome in assay [1] and in assay [2] was inactive.

For `Cc1ccc(S(=O)(=O)Nc2cc(Oc3cccc(C#N)c3)cc3cccnc23)cc1`, the GI50 in the assay with A549 [3] stood at 6.48 µM; in assay [4] it was 6.83 µM. Also, the IC50 entry in the assay on NCI-H1299 (nci-h1299) and in the assay on A549 [5] (a549) was “Not Active” throughout.

Consider `COc1ccc(S(=O)(=O)Nc2ccc(-c3cccnc3)c3cccnc23)cc1`, for which the values for the IC50 (in assay [6] (read-out: IC50); in the assay on NCI-H1299 (setting [7]); with A549 [5] (setting [8])) were 0.58 µM, 5.31 µM and 7.94 µM, respectively. The outcome in assay [1] and in assay [2] was Active. The GI50 was 1.24 µM in the assay on A549 [3] and 0.44 µM in assay [4].

Consider `Cc1ccc(S(=O)(=O)Nc2ccc(-c3cccnc3)c3cccnc23)cc1`, for which the result in assay [1] and in assay [2] was Active. Moreover, the GI50 came out at 6.02 µM in the assay on A549 [3] and 4.22 µM in assay [4]. Further, the IC50 with NCI-H1299 (setting [7]) came to 6.95 µM; in the assay with A549 [5] (setting [8]) it was 7.13 µM.

On to `O=S(=O)(Nc1ccc(-c2ccncc2)c2cccnc12)C1CC1`, for which the result in assay [1] and in assay [2] was inactive.

`O=S(=O)(Nc1ccc(-c2ccccc2)c2cccnc12)c1cccnc1`: the result in assay [1] and in assay [2] was Active.

On to `O=S(=O)(Nc1ccc(-c2cccnc2)c2cccnc12)C1CC1`, for which the result in assay [1] and in assay [2] was inactive.

For `Cc1ccc(S(=O)(=O)N(C)c2cccc3cccnc23)cc1`, in assay [6], the inhibition result was “inactive”.

Regarding `O=S(=O)(Nc1ccc(-c2ccncc2)c2cccnc12)c1cccnc1`, the result in assay [1] and in assay [2] was inactive. For the same compound, the GI50 in the assay on A549 [3] came to 5.88 µM; in assay [4], 1.07 µM. The IC50 in the assay with NCI-H1299 (setting [7]) was determined as 9.48 µM; in the assay on A549 [5] (setting [8]) it was 11.8 µM.

As for `Cc1ccc(S(=O)(=O)Nc2ccc(-c3ccco3)c3cccnc23)cc1`, the result in assay [1] and in assay [2] was Active. Also, the GI50 in the assay on A549 [3] came to 26 µM; in assay [4], 9.78 µM. The IC50 entry with NCI-H1299 (nci-h1299) and in the assay on A549 [5] (a549) was “Not Active” throughout.

On to `COc1ccc(Oc2cc(NS(=O)(=O)c3ccc(C)cc3)c3ncccc3c2)cc1`, for which the result in assay [1] and in assay [2] was inactive. Further, the GI50 stood at 4.09 µM with A549 [3] and 0.74 µM in assay [4]. For the same compound, the IC50 in the assay with NCI-H1299 (setting [7]) amounted to 11.3 µM; with A549 [5] (setting [8]) it was 16.9 µM.

On to `O=S(=O)(Nc1ccc(-c2cccnc2)c2cccnc12)c1cccnc1`, for which the outcome in assay [1] and in assay [2] was Active. Moreover, the figures for the GI50 (in the assay on A549 [3]; in assay [4]) were 0.91 µM and 0.4 µM, respectively. The values for the IC50 with NCI-H1299 (setting [7]) and in the assay on A549 [5] (setting [8]) were 1.05 µM and 1.49 µM, respectively.

As to `Cc1ccc(C(=O)Nc2ccc(Br)c3cccnc23)cc1`, the inhibition entry in assay [6] is “inactive”.

For the compound `Cc1ccc(S(=O)(=O)Nc2ccc(-c3ccccc3)c3ccncc23)cc1`, in assay [6], the inhibition result was “inactive”.

Turning to `Cc1ccc(S(=O)(=O)Nc2cccc3cccnc23)cc1`, the IC50 amounted to 2.18 µM in assay [6] (read-out: IC50), 5.35 µM with NCI-H1299 (setting [7]) and 7.54 µM in the assay with A549 [5] (setting [8]). The result in assay [1] and in assay [2] was Active. In addition, the values for the GI50 (in the assay on A549 [3]; in assay [4]) were 2.48 µM and 2.46 µM, respectively.

With `O=S(=O)(Nc1ccc(-c2cccnc2)c2cccnc12)c1cccc(C(F)(F)F)c1`, the result in assay [1] and in assay [2] was Active. Also, the results for the IC50 in the assay on NCI-H1299 (setting [7]) and in the assay with A549 [5] (setting [8]) were 3.9 µM and 5.91 µM, respectively.

Consider `Cc1ccc(S(=O)(=O)Nc2ccc(Br)c3ccccc23)cc1`, for which the inhibition result in assay [6] is “inactive”. Moreover, the values for the GI50 (with A549 [3]; in assay [4]) were 48.5 µM and 27.4 µM, respectively. In addition, the IC50 entry with NCI-H1299 (nci-h1299) and with A549 [5] (a549) was “Not Active” throughout.

With `Cc1ccc(S(=O)(=O)Nc2ccc(N3CCC(Cc4ccccc4)CC3)c3cccnc23)cc1`, the IC50 entry in assay [6] is listed as “Not Active”. In addition, the result in assay [1] and in assay [2] was inactive.

For `COc1ccc(S(=O)(=O)Nc2ccc(-c3ccccc3)c3cccnc23)cc1`, the outcome in assay [1] and in assay [2] was Active.

Turning to `Cc1ccc(S(=O)(=O)Nc2ccc(N3CCOCC3)c3cccnc23)cc1`, the half-inhibitory concentration (IC50) result in assay [6] is reported as “Not Active”. Besides, the outcome in assay [1] and in assay [2] was inactive.

As to `Cc1ccc(S(=O)(=O)Nc2ccc(N3CCN(C)CC3)c3cccnc23)cc1`, in assay [6], the concentration for half-maximal inhibition (IC50) entry is listed as “Not Active”. The result in assay [1] and in assay [2] was inactive.

In the case of `O=S(=O)(Nc1ccc(-c2ccccc2)c2cccnc12)C1CC1`, the result in assay [1] and in assay [2] was inactive.

`COc1ccc(S(=O)(=O)Nc2ccc(-c3ccncc3)c3cccnc23)cc1`: the 50% inhibitory concentration (IC50) in assay [6] (read-out: IC50) is 2.45 µM; in the assay with NCI-H1299 (nci-h1299), “Not Active”; in the assay on A549 [5] (a549) it was “Not Active”. Further, the result in assay [1] and in assay [2] was Active. Also, the GI50 with A549 [3] turned out to be 5.24 µM; in assay [4] it was 1.07 µM.

As to `Cc1ccc(NS(=O)(=O)c2ccc(-c3ccccc3)c3cccnc23)cc1`, the inhibition result in assay [6] was “inactive”.
